Data: US12098134B2, “Benzo-heterocyclic compound and composition for preventing or treating cancer disease, containing same as active ingredient” (INDUSTRY ACADEMIC COOPERATION FOUNDATION KEIMYUNG UNIVERSITY, priority 2018, dated 2024)

Experiments:
[1] = system: breast cancer cell line MDA-MB-231; experiment: Anti-proliferative activity in breast cancer cell line MDA-MB-231; assay type: cell-based; settings: MDA-MB-231 cell line
From the text: Anti-proliferative activity against breast cancer cell line MDA-MB-231 was investigated using the compounds synthesized through the above Examples 1 to 4.

[2] = system: non-small cell lung cancer cell line H1975; experiment: Anti-proliferative activity in H1975 cell line; assay type: cell-based; settings: Homo sapiens, NCI-H1975
[3] = system: lung cancer cell line A549; experiment: Anti-proliferative activity in A549 cell line; assay type: cell-based; settings: Homo sapiens
[4] = system: cervical cancer cell line HeLa; experiment: Anti-proliferative activity in HeLa cell line; assay type: cell-based; settings: Homo sapiens
[5] = system: SH-SY5Y cells; experiment: Soft agar colony formation assay; assay type: cell-based, human; settings: cultured 1-2 weeks
Protocol: Anchorage-independent cell growth is a characteristic of cell carcinogenesis and indicates the ability of transformed cells to grow independently of a solid surface. The soft agar colony formation assay is a widely used method to measure the capability of anchorage-independent cell growth in vitro. Thus, the suppressive effect of Compound 9b on Anchorage-independent cell growth by soft agar colony formation assay.
SH-SY5Y cells were seeded in a 6-well plate with 1.2% agar (4×10^5 cells/well) and Compound 9b was added at concentrations of 1 μM, 3 μM and 5 μM and cultured for 1-2 weeks. DMSO (0.5%) was used as a negative control. After incubation, colonies were stained using by 0.05% crystal violet for 10 minutes. The colonies were washed by 3rd distilled water and captured.

[6] = system: human neuroblastoma cell line SH-SY5Y; experiment: Anti-proliferative activity in SH-SY5Y cell line; assay type: cell-based; settings: half maximal growth inhibition concentration, after 72 hours
Protocol: Anti-proliferative activity against human neuroblastoma cell line SH-SY5Y, an in vitro model of human malignant metastatic neuroblastoma, was investigated using the compounds synthesized through the above Examples 1 to 4.
SH-SY5Y cells were cultured in DMEM (Dulbecco's Modified Eagle's Media) with L-glutamine supplemented with […] of streptomycin, 100 units/mL of penicillin and 10% fetal bovine serum (FBS). The cells were grown to confluence in a humidified atmosphere (37° C., 5% CO2).

Compound	GI50 ([1]; Homo sapiens)	other results
O=C(NO)c1ccc(-c2nc3ccccc3[nH]2)cc1 [Compound 5, 4-(1H-benzo[d]imidazol-2-yl)-N-hydroxybenzamide]	15.6 µM	
Cn1c(-c2ccc(C(=O)NO)cc2)nc2ccccc21 [Compound 6a, N-hydroxy-4-(1-methyl-1H-benzo[d]imidazol-2-yl)benzamide]	40.3 µM	
CCn1c(-c2ccc(C(=O)NO)cc2)nc2ccccc21 [Compound 6b, 4-(1-ethyl-1H-benzo[d]imidazol-2-yl)-N-hydroxybenzamide]	15.6 µM	
CCCn1c(-c2ccc(C(=O)NO)cc2)nc2ccccc21 [Compound 6c, N-hydroxy-4-(1-propyl-1H-benzo[d]imidazol-2-yl)benzamide]	44.6 µM	
CCCCn1c(-c2ccc(C(=O)NO)cc2)nc2ccccc21 [Compound 6d, 4-(1-butyl-1H-benzo[d]imidazol-2-yl)-N-hydroxybenzamide]	35.5 µM	
O=C(NO)c1ccc(-c2nc3ccccc3o2)cc1 [Compound 9a, 4-(benzo[d]oxazol-2-yl)-N-hydroxybenzamide]	8.31 µM	
O=C(NO)c1ccc(-c2nc3ccccc3s2)cc1 [Compound 9b, 4-(benzo[d]thiazol-2-yl)-N-hydroxybenzamide]	3.86 µM	GI50 [2]: 3.71 µM; GI50 [3]: 15.6 µM; GI50 [4]: 13.5 µM; ability of SH-SY5Y cells to form colonies ([5]; 1 μM, 3 μM and 5 μM): decreased in a dose-dependent manner; anchorage-independent cell growth of SH-SY5Y neuroblastoma ([5]; 3 μM): almost completely inhibited
O=C(NO)c1cccc(-c2nc3ccccc3[nH]2)c1 [Compound 13, 3-(1H-benzo[d]amidazol-2-yl)-N-hydroxybenzamide]		GI50 [6]: > 100 µM; GI50 [1]: > 100 µM
O=C(CCCCCCC(=O)Nc1ccccc1)NO [SAHA, reference compound]		GI50 [6]: 2.9 µM; GI50 [1]: 3.16 µM

More lines, main results first:

GI50 ([1]; Homo sapiens)	Compound	other results
> 100 µM	Cn1c(-c2cccc(C(=O)NO)c2)nc2ccccc21 [Compound 14a, N-hydroxy-3-(1-methyl-1H-benzo[d]imidazol-2-yl)benzamide]	
> 100 µM	CCn1c(-c2cccc(C(=O)NO)c2)nc2ccccc21 [Compound 14b, 3-(1-Ethyl-1H-benzo[d]imidazol-2-yl)-N-hydroxybenzamide]	
62.1 µM	CCCn1c(-c2cccc(C(=O)NO)c2)nc2ccccc21 [Compound 14c, N-hydroxy-3-(1-propyl-1H-benzo[d]imidazol-2-yl)benzamide]	
60.8 µM	CCCCn1c(-c2cccc(C(=O)NO)c2)nc2ccccc21 [Compound 14d, 3-(1-Butyl-1H-benzo[d]imidazol-2-yl)-N-hydroxybenzamide]	
47.9 µM	O=C(NO)c1cccc(-c2nc3ccccc3o2)c1 [Compound 17a, 3-(Benzo[d]oxazol-2-yl)-N-hydroxybenzamide]	
23.1 µM	O=C(NO)c1cccc(-c2nc3ccccc3s2)c1 [Compound 17b, 3-(benzo[d]thiazol-2-yl)-N-hydroxybenzamide]	
